Measured values from PMC7583830 (Molecules, 2020).
Several values for one entry are separate records, joined by “and”; a condition that tells them apart may be missing. Equal values may be shown once. Where a SMILES comes first, the peptide text is derived from it. [ ]: non-standard residue; d: D form. The star is where a group is joined. DOTA = O=C(O)CN1CCN(CC(=O)O)CCN(CC(=O)*)CCN(CC(=O)O)CC1; 1Nal = N[C@@H](Cc1cccc2ccccc12)C(=O)O; NMeNle = CCCC[C@H](NC)C(=O)O

Experiment: Stability in rat liver homogenate
Type: in vitro ADME
Experimental: In vitro stability studies for the characterization of the metabolic stability of the radiolabeled peptide analogs in human serum were carried out with [^177Lu]Lu-1, [^177Lu]Lu-M1, [^177Lu]Lu-M2, [^177Lu]Lu-M3 and [^177Lu]Lu-M4 (n = 2). Additional stability studies in rat liver and kidney homogenates were performed for [^177Lu]Lu-1 (n = 2). Tissue homogenates were prepared from dissected organs by homogenization for 1 min at RT (IKA-Werke, Staufen, Germany) in 20 mM HEPES buffer pH 7.3 (30% v/v). The radioligands were incubated in the different media at a concentration of 500 pmol/mL (corresponding to an activity of 6–11 MBq). After incubation at 37 °C at different time points for up to 24 h, a 100 µl sample was taken in duplicates and analyzed by HPLC. Samples obtained from human serum and rat homogenates were treated with ACN at a ratio of 1:1.5 (v/v) to precipitate proteins, centrifuged (14,000 rpm, 2 min, centrifuge 5424, Eppendorf AG, Germany) and diluted with water at a ratio of 1:1 (v/v). A 100 µl aliquot of this solution was injected into the radio HPLC system. The degradation of the radioligand was evaluated based on the radiochemical purity after radiolabeling and the percentage of intact radiopeptide observed during incubation in the different media.

- intact radiopeptide (30 min): 83.6 ± 0.2% and 84%
- intact radiopeptide (2 h): 52.9 ± 2.0% and > 50%
- intact radiopeptide (24 h): 49.3 ± 1.7%
- intact radiopeptide (up to 20 min incubation): > 90%
Structure (SMILES): CCCC[C@@H](C(=O)N[C@@H](CC(=O)O)C(=O)N[C@@H](Cc1cccc2ccccc12)C(N)=O)N(C)C(=O)[C@H](Cc1c[nH]c2ccccc12)NC(=O)CNC(=O)[C@H](Cc1ccc(O)cc1)NC(=O)[C@@H]1CCCN1C(=O)[C@@H](CCC(=O)O)NC(=O)CN1CCN(CC(=O)O)CCN(CC(=O)O)CCN(CC(=O)O)CC1 [[^177Lu]Lu-1, metal not drawn] ({DOTA}-[dE]PYGW[NMeNle]D[1Nal]-NH2)
